{"source": "patent US20050209278A1", "about": "“Piperidinyl- and piperazinyl-sulfonylmethyl hydroxamic acids and their use as protease inhibitors” (priority 2002, published 2005)", "data": [{"target": "T1, MMP-1 (Homo sapiens, UniProt P03956)", "T1 construct": "made in house; host or cells: MMP-1-transfected HT-1080 cells (spent media)", "T1 sequence (P03956 100-469)": "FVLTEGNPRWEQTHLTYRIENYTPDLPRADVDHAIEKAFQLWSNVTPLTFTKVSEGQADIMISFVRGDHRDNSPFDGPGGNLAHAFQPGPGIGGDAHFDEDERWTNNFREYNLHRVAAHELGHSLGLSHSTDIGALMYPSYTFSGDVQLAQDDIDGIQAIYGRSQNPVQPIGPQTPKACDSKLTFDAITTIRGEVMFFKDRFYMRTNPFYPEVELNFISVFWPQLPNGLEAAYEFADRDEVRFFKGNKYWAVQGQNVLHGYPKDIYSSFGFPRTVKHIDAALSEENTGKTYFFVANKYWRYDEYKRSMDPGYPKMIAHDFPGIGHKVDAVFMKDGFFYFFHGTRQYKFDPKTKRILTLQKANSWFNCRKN", "assay": "In vitro MMP inhibition, Ki determination (fluorogenic substrate II)", "type": "biochemical", "settings": "value outside parentheses; read-out: MMP-1 Ki", "units": {"Ki": "µM"}, "values": [{"smiles": "CCCCc1ccc(C2CCN(S(=O)(=O)C3(C(=O)NO)CCN(CCOC)CC3)CC2)nc1", "note": "[Example 397]", "Ki": "> 10"}, {"smiles": "O=C(NO)C1(S(=O)(=O)N2CCC(c3ccc(OCc4ccccc4)cn3)CC2)CCOCC1", "note": "[Example 398]", "Ki": 1.95}, {"smiles": "CCCC#Cc1cnc(N2CCN(S(=O)(=O)C3(C(=O)NO)CCOCC3)CC2)s1", "note": "[Example 400]", "Ki": 3.32}, {"smiles": "CCCCCC/C=C\\C1CCN(S(=O)(=O)C2(C(=O)NO)CCOCC2)CC1", "note": "[Example 401]", "Ki": "> 10"}, {"smiles": "CCCCCC/C=C/C1CCN(S(=O)(=O)C2(C(=O)NO)CCOCC2)CC1", "note": "[Example 402]", "Ki": 3.65}, {"smiles": "O=C(NO)C1(S(=O)(=O)N2CCC(COCc3ccc(C(F)(F)F)cc3)CC2)CCOCC1", "note": "[Example 403]", "Ki": "> 10"}, {"smiles": "O=C(NO)C1(S(=O)(=O)N2CCC(COCc3ccc(OC(F)(F)F)cc3)CC2)CCOCC1", "note": "[Example 404]", "Ki": "> 10"}, {"smiles": "O=C(NO)C1(S(=O)(=O)N2CCC(COCc3ccc(SC(F)(F)F)cc3)CC2)CCOCC1", "note": "[Example 405]", "Ki": 8.32}, {"smiles": "CCCCCCCOC1CCN(S(=O)(=O)C2(C(=O)NO)CCOCC2)CC1", "note": "[Example 406]", "Ki": 9.01}, {"smiles": "O=C(NO)C1(S(=O)(=O)N2CCC(c3ccc(-c4cccs4)c(F)c3)CC2)CCOCC1", "note": "[Example 407]", "Ki": "> 10"}, {"smiles": "O=C(NO)C1(S(=O)(=O)N2CCC(c3ccc(N4CCCC4)cn3)CC2)CCOCC1", "note": "[Example 408]", "Ki": "> 10"}, {"smiles": "O=C(NO)C1(S(=O)(=O)N2CCC(c3ccc(-c4ccccn4)cn3)CC2)CCOCC1", "note": "[Example 409]", "Ki": "> 10"}, {"smiles": "CCCCOc1ccc(C2CCN(S(=O)(=O)C3(C(=O)NO)CCOCC3)CC2)nc1", "note": "[Example 410]", "Ki": 3.49}, {"smiles": "CCC(F)(F)CCc1ccc(C2CCN(S(=O)(=O)C3(C(=O)NO)CCOCC3)CC2)cn1", "note": "[Example 411]", "Ki": "> 10"}, {"smiles": "Cc1ccc(-c2csc(N3CCN(S(=O)(=O)C4(C(=O)NO)CCOCC4)CC3)n2)cc1", "note": "[Example 412]", "Ki": "> 10"}, {"smiles": "Cc1cccc(-c2csc(N3CCN(S(=O)(=O)C4(C(=O)NO)CCOCC4)CC3)n2)c1", "note": "[Example 413]", "Ki": "> 10"}, {"smiles": "O=C(NO)C1(S(=O)(=O)N2CCN(c3nc(-c4ccccc4)cs3)CC2)CCOCC1", "note": "[Example 415]", "Ki": "> 10"}, {"smiles": "Cc1ccc(-c2ccc(C3CCN(S(=O)(=O)C4(C(=O)NO)CCOCC4)CC3)nc2)s1", "note": "[Example 416]", "Ki": 6.42}, {"smiles": "O=C(NO)C1(S(=O)(=O)N2CCC(c3ccc(-c4cccc(F)c4)cn3)CC2)CCOCC1", "note": "[Example 417]", "Ki": 1.83}, {"smiles": "O=C(NO)C1(S(=O)(=O)N2CCC(c3ccc(OCCC(F)(F)F)cn3)CC2)CCOCC1", "note": "[Example 418]", "Ki": 3.08}, {"smiles": "O=C(NO)C1(S(=O)(=O)N2CCN(c3ccc(-c4nn[nH]n4)cc3)CC2)CCOCC1", "note": "[Example 419]", "Ki": "> 10"}, {"smiles": "CCCCc1ccc(C2(O)CCN(S(=O)(=O)C3(C(=O)NO)CCOCC3)CC2)nc1", "note": "[Example 420]", "Ki": "> 10"}]}]}
